# Measured values as given in ChEMBL document CHEMBL1154659, “Discovery and optimization of chromenotriazolopyrimidines as potent inhibitors of the mouse double minute 2-tumor protein 53 protein-protein interaction” (J Med Chem, 2009).
# Activity calls are given as the source filed them. The calls are words filed in the database; no cut-off is given here.
# Columns and labels:
# SJSA-1 = experiment: Induction of apoptosis in human SJSA1 cells assessed as caspase 3/7 activity after 48 hrs; type: functional, cell-based
# HCT-116 [1] = experiment: Inhibition of human p21 deficient HCT116 cell proliferation after 16 hrs by BrdU assay; type: functional, cell-based
# HCT-116 [2] = experiment: Inhibition of human HCT116 cell proliferation after 16 hrs by BrdU assay; type: functional, cell-based
# HCT-116 [3] = experiment: Induction of p21 mRNA in human HCT116 cells by RT-PCR; type: functional, cell-based
# HCT-116 [4] = experiment: Inhibition of human p53 deficient HCT116 cell proliferation after 16 hrs by BrdU assay; type: functional, cell-based
# [5] = biological target: Tumour suppressor p53/oncoprotein Mdm2 (Homo sapiens, UniProt Q00987); experiment: Inhibition of human MDM2/P53 interaction by HTRF assay; type: protein assay
# Chain of Tumour suppressor p53/oncoprotein Mdm2 (P04637 whole entry): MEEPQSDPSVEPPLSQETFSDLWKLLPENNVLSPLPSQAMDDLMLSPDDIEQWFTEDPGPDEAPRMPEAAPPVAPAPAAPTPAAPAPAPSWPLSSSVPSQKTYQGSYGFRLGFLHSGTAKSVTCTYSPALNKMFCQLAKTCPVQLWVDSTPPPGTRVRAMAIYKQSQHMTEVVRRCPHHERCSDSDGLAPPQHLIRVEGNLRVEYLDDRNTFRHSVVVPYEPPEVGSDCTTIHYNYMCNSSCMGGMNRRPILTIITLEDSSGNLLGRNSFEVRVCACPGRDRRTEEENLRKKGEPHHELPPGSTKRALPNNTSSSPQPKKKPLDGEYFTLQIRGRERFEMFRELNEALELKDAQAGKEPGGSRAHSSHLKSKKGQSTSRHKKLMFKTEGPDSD
# Chain of Tumour suppressor p53/oncoprotein Mdm2 (Q00987 whole entry): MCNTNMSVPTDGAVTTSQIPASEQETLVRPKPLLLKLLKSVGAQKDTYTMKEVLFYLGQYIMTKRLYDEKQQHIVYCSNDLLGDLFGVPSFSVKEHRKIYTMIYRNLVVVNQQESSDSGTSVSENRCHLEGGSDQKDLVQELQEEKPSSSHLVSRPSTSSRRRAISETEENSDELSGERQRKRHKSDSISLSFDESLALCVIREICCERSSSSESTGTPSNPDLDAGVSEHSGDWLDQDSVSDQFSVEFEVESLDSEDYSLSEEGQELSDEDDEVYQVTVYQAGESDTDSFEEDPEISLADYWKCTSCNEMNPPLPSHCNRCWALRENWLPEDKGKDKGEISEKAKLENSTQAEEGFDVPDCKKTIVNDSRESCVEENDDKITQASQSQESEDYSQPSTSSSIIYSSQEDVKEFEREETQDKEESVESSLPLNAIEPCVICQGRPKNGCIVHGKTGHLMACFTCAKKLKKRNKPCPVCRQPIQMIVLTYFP
IC50 [5] [nM],SMILES,also measured
–,COc1ccc(C2=N[C@@H](c3ccc(Cl)cc3)[C@@H](c3ccc(Cl)cc3)N2C(=O)N2CCNC(=O)C2)c(OC(C)C)c1,Activity (SJSA-1): Dose-dependent effect; Activity (HCT-116 [1]): inactive; Activity (HCT-116 [2]): Active; Activity (HCT-116 [3]): Dose-dependent effect; Activity (HCT-116 [4]): inactive
3940,COc1c(C)ccc2c1C1=C(C(c3ccc(Br)cc3)O2)C(c2ccc(Br)cc2)n2ncnc2N1C (racemic),–
1720,CN1C2=C(C(c3ccc(Br)cc3)Oc3cccc(F)c32)C(c2ccc(Br)cc2)n2ncnc21 (racemic),–
1400,CN1C2=C(C(c3ccc(Br)cc3)Oc3ccc(Cl)cc32)C(c2ccc(Br)cc2)n2ncnc21 (racemic),–
1880,CN1C2=C(C(c3ccc(Br)cc3)Oc3ccccc32)C(c2ccc(F)cc2)n2ncnc21 (racemic),–
3060,CN1C2=C(C(c3ccc(Br)cc3)Oc3ccc(C#N)cc32)C(c2ccc(Br)cc2)n2ncnc21 (racemic),–
2080,CN1C2=C(C(c3ccc(C#N)cc3)Oc3ccccc32)C(c2ccc(Br)cc2)n2ncnc21 (racemic),–
1730,CN1C2=C(C(c3ccc(Br)cc3)Oc3ccc(F)cc32)C(c2ccc(Br)cc2)n2ncnc21 (racemic),–
990,CN1C2=C(C(c3ccc(Br)cc3)Oc3cc(F)ccc32)C(c2ccc(Br)cc2)n2ncnc21 (racemic),–
3500,CN1C2=C(C(c3ccc(Br)cc3)Oc3c(Cl)cccc32)C(c2ccc(Br)cc2)n2ncnc21 (racemic),–
6570,CN1C2=C(C(c3ccc(F)cc3)Oc3ccccc32)C(c2ccc(Br)cc2)n2ncnc21 (racemic),–
890,CN1C2=C(C(c3ccc(Cl)cc3)Oc3ccccc32)C(c2ccc(Br)cc2)n2ncnc21 (racemic),–
3200,CCc1ccc2c(c1)C1=C(C(c3ccc(Br)cc3)O2)C(c2ccc(Br)cc2)n2ncnc2N1C (racemic),–
5840,CN1C2=C(C(c3ccc(Br)cc3)Oc3ccccc32)C(c2ccc(C#N)cc2)n2ncnc21 (racemic),–
4740,Cc1ccc(C2C3=C(c4ccccc4OC3c3ccc(Br)cc3)N(C)c3ncnn32)cc1 (racemic),–
> 100000,CN1C2=C(C(c3ccc(Br)cc3)Oc3c(Cl)cc(Cl)cc32)C(c2ccc(Br)cc2)n2ncnc21 (racemic),–
9070,CC#Cc1ccc(C2Oc3ccccc3C3=C2C(c2ccc(Br)cc2)n2ncnc2N3C)cc1 (racemic),–
440,Cc1ccc2c(c1)C1=C(C(c3ccc(Br)cc3)O2)C(c2ccc(Br)cc2)n2ncnc2N1C (racemic),–
910,CCOc1cccc2c1C1=C(C(c3ccc(Br)cc3)O2)C(c2ccc(Br)cc2)n2ncnc2N1C (racemic),–
14800,CN1C2=C(C(c3ccc(F)cc3)Oc3ccccc32)C(c2ccc(F)cc2)n2ncnc21 (racemic),–
4630,Cc1ccc(C2Oc3ccccc3C3=C2C(c2ccc(Br)cc2)n2ncnc2N3C)cc1 (racemic),–
1210,CN1C2=C(C(c3ccc(Cl)cc3)Oc3ccccc32)C(c2ccc(Cl)cc2)n2ncnc21 (racemic),–
15100,CN1C2=C(C(c3ccc(Br)cc3)Oc3cc(Cl)ccc32)C(c2ccc(Br)cc2)n2ncnc21 (racemic),–
2470,C#Cc1ccc(C2Oc3ccccc3C3=C2C(c2ccc(Br)cc2)n2ncnc2N3C)cc1 (racemic),–
480,Cc1cc2c(cc1F)OC(c1ccc(Br)cc1)C1=C2N(C)c2ncnn2C1c1ccc(Br)cc1 (racemic),–
> 100000,CCc1ccc(C2Oc3ccccc3C3=C2C(c2ccc(Br)cc2)n2ncnc2N3C)cc1 (racemic),–
–,"Cc1ccc2c(c1)C1=C(C(c3ccc(Br)cc3)O2)C(c2ccc(Br)cc2)n2ncnc2N1C (single isomer, unassigned)",Activity (SJSA-1): Dose-dependent effect; Activity (HCT-116 [1]): inactive; Activity (HCT-116 [2]): Active; Activity (HCT-116 [3]): Dose-dependent effect; Activity (HCT-116 [4]): inactive
